Source: patent US20240246937A1 (MERCK SHARP & DOHME LLC, priority 2021, published 2024)

Each compound was assayed against recombinant IL4I1 (Homo sapiens (Human), UniProt Q96RQ9) (assay: IL4I1 Enzymatic Assay (Amplex Red/HRP coupled fluorescence detection of H2O2)). Details: 240 min; recombinant IL4I1, four-hour pre-incubation with compound.
Type: biochemical
In short: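 Recombinant human IL4I1 (1 nM final) pre-incubated 4 h with compound at ambient temperature in 50 mM Hepes pH 7.0, 0.005% Tween20. Started with 1 mM each Phe/Tyr/Trp plus Amplex Red/HRP; H2O2-derived resorufin fluorescence read after 120 min; EC50 from ten-point 1:3 titration, four-parameter fit.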

recombinant IL4I1, sequence (Q96RQ9 22-567): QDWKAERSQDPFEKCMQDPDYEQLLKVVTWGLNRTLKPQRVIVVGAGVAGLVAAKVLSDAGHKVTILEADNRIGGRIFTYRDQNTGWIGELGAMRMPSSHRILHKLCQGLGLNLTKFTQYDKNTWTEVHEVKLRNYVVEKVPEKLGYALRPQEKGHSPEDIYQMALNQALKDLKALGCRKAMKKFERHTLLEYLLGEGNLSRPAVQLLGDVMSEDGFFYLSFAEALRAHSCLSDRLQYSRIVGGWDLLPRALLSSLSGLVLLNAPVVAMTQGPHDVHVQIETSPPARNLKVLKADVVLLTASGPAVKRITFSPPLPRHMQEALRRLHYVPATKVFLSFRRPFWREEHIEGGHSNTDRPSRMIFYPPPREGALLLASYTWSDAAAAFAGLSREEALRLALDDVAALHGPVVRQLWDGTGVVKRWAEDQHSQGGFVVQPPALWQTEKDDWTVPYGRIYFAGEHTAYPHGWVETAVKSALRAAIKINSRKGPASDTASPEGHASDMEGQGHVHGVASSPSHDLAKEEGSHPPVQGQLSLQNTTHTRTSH

SMILES	EC50 [nM]
O=C1C(=O)N(C2CCC2)CCN1Cc1ccc(-c2cnco2)nn1 [Example 394, 1-cyclobutyl-4-((6-(oxazol-5-yl)pyridazin-3-yl)methyl)piperazine-2,3-dione]	31
O=C1C(=O)N(C2CCC2)CCN1Cc1ccc(-n2nccn2)nn1 [Example 398, 1-((6-(2H-1,2,3-triazol-2-yl)pyridazin-3-yl)methyl)-4-cyclobutylpiperazine-2,3-dione]	22
O=C1C(=O)N(C2CCC2)CCN1Cc1ncc(-n2nccn2)cc1F [Example 400, 1-cyclobutyl-4-((3-fluoro-5-(2H-1,2,3-triazol-2-yl)pyridin-2-yl)methyl)piperazine-2,3-dione]	25
O=C1C(=O)N(C23CC(C2)C3)CCN1Cc1ccc(-n2nccn2)nn1 [Example 401, 1-((6-(2H-1,2,3-triazol-2-yl)pyridazin-3-yl)methyl)-4-(bicyclo[1.1.1]pentan-1-yl)piperazine-2,3-dione]	48
O=C1C(=O)N(C23CC(C2)C3)CCN1Cc1ccc(-n2ccnn2)nn1 [Example 402, 1-((6-(1H-1,2,3-triazol-1-yl)pyridazin-3-yl)methyl)-4-(bicyclo[1.1.1]pentan-1-yl)piperazine-2,3-dione]	36
O=C1C(=O)N(C23CC(C2)C3)CCN1Cc1ncc(-n2nccn2)cc1F [Example 405, 1-(bicyclo[1.1.1]pentan-1-yl)-4-((3-fluoro-5-(2H-1,2,3-triazol-2-yl)pyridin-2-yl)methyl)piperazine-2,3-dione]	23
O=C1C(=O)N(C23CC(C2)C3)CCN1Cc1ccc(-n2nccn2)cc1F [Example 407, 1-(bicyclo[1.1.1]pentan-1-yl)-4-(2-fluoro-4-(2H-1,2,3-triazol-2-yl)benzyl)piperazine-2,3-dione]	27
N#CC1(n2ccn(Cc3ccc(-n4nccn4)cn3)c(=O)c2=O)CC1 [Example 413, 1-(4-((5-(2H-1,2,3-triazol-2-yl)pyridin-2-yl)methyl)-2,3-dioxo-3,4-dihydropyrazin-1(2H)-yl)cyclopropane-1-carbonitrile]	66
CC1(n2ccn(Cc3ccc(-n4nccn4)nc3)c(=O)c2=O)CC1 [Example 415, 1-((6-(2H-1,2,3-triazol-2-yl)pyridin-3-yl)methyl)-4-(1-methylcyclopropyl)-1,4-dihydropyrazine-2,3-dione]	138
O=c1c(=O)n([C@H]2C[C@H]3C[C@H]3C2)ccn1Cc1ccc(-c2cccnc2)nn1 [Example 416, 1-((cis)-bicyclo[3.1.0]hexan-3-yl)-4-((6-(pyridin-3-yl)pyridazin-3-yl)methyl)-1,4-dihydropyrazine-2,3-dione]	28
N#Cc1ccc(-c2cc(CN3CCN(C45CC(C4)C5)C(=O)C3=O)no2)cc1 [Example 423, 4-(3-((4-(bicyclo[1.1.1]pentan-1-yl)-2,3-dioxopiperazin-1-yl)methyl)isoxazol-5-yl)benzonitrile]	19
N#Cc1ccccc1-c1cc(CN2CCN(C34CC(C3)C4)C(=O)C2=O)no1 [Example 424, 2-(3-((4-(bicyclo[1.1.1]pentan-1-yl)-2,3-dioxopiperazin-1-yl)methyl)isoxazol-5-yl)benzonitrile]	19
O=c1c(=O)n(C23CC(C2)C3)ccn1Cc1cn(-c2ccccn2)nn1 [Example 427, 1-(bicyclo[1.1.1]pentan-1-yl)-4-((1-(pyridin-2-yl)-1H-1,2,3-triazol-4-yl)methyl)-1,4-dihydropyrazine-2,3-dione]	19
O=c1c(=O)n(C23CC(C2)C3)ccn1Cc1cn(-c2cccnc2)nn1 [Example 428, 1-(bicyclo[1.1.1]pentan-1-yl)-4-((1-(pyridin-3-yl)-1H-1,2,3-triazol-4-yl)methyl)-1,4-dihydropyrazine-2,3-dione]	21
CC1(n2ccn(Cc3cn(-c4cccnc4)nn3)c(=O)c2=O)CC1 [Example 429, 1-(1-methylcyclopropyl)-4-((1-(pyridin-3-yl)-1H-1,2,3-triazol-4-yl)methyl)-1,4-dihydropyrazine-2,3-dione]	29
CC1(n2ccn(Cc3cn(-c4ccccn4)nn3)c(=O)c2=O)CC1 [Example 430, 1-(1-methylcyclopropyl)-4-((1-(pyridin-2-yl)-1H-1,2,3-triazol-4-yl)methyl)-1,4-dihydropyrazine-2,3-dione]	183
N#CC1(n2ccn(Cc3cn(-c4cccnc4)nn3)c(=O)c2=O)CC1 [Example 431, 1-(2,3-dioxo-4-((1-(pyridin-3-yl)-1H-1,2,3-triazol-4-yl)methyl)-3,4-dihydropyrazin-1(2H)-yl)cyclopropane-1-carbonitrile]	130

More lines, in order of falling EC50, values ahead:

EC50 [nM]	SMILES
19	O=C1C(=O)N(C2CCC2)CCN1Cc1ccc(-n2nccn2)cc1 [Example 399, 1-(4-(2H-1,2,3-triazol-2-yl)benzyl)-4-cyclobutylpiperazine-2,3-dione]
19	O=c1c(=O)n(C23CC(C2)C3)ccn1Cc1ccc(-n2nccn2)nc1 [Example 412, 1-((6-(2H-1,2,3-triazol-2-yl)pyridin-3-yl)methyl)-4-(bicyclo[1.1.1]pentan-1-yl)-1,4-dihydropyrazine-2,3-dione]
17	O=c1c(=O)n(C23CC(C2)C3)ccn1Cc1ccc(-n2nccn2)nn1 [Example 403, 1-((6-(2H-1,2,3-triazol-2-yl)pyridazin-3-yl)methyl)-4-(bicyclo[1.1.1]pentan-1-yl)-1,4-dihydropyrazine-2,3-dione]
15	O=C1C(=O)N(C23CC(C2)C3)CCN1Cc1ccc(-n2nccn2)cc1 [Example 406, 1-(4-(2H-1,2,3-triazol-2-yl)benzyl)-4-(bicyclo[1.1.1]pentan-1-yl)piperazine-2,3-dione]
15	CC1(n2ccn(Cc3ccc(-n4ccnn4)nc3)c(=O)c2=O)CC1 [Example 414, 1-((6-(1H-1,2,3-triazol-1-yl)pyridin-3-yl)methyl)-4-(1-methylcyclopropyl)-1,4-dihydropyrazine-2,3-dione]
11	O=c1c(=O)n(C2CCC2)ccn1Cc1ccc(-n2nccn2)cn1 [Example 397, 1-((5-(2H-1,2,3-triazol-2-yl)pyridin-2-yl)methyl)-4-cyclobutyl-1,4-dihydropyrazine-2,3-dione]
10	O=c1c(=O)n(C23CC(C2)C3)ccn1Cc1ccc(-n2ccnn2)nn1 [Example 404, 1-((6-(1H-1,2,3-triazol-1-yl)pyridazin-3-yl)methyl)-4-(bicyclo[1.1.1]pentan-1-yl)-1,4-dihydropyrazine-2,3-dione]
9	O=c1c(=O)n(C2CCC2)ccn1Cc1ccc(-n2nccn2)nc1 [Example 409, 1-((6-(2H-1,2,3-triazol-2-yl)pyridin-3-yl)methyl)-4-cyclobutyl-1,4-dihydropyrazine-2,3-dione]
8	O=C1C(=O)N(C2CCC2)CCN1Cc1ccc(-c2cncs2)nn1 [Example 395, 1-cyclobutyl-4-((6-(thiazol-5-yl)pyridazin-3-yl)methyl)piperazine-2,3-dione]
8	O=c1c(=O)n([C@H]2C[C@H]3C[C@H]3C2)ccn1Cc1ccc(-n2nccn2)cn1 [Example 408, 1-((5-(2H-1,2,3-triazol-2-yl)pyridin-2-yl)methyl)-4-((cis)-bicyclo[3.1.0]hexan-3-yl)-1,4-dihydropyrazine-2,3-dione]
8	O=C1C(=O)N(C2CCC2)CCN1Cc1ncc(-c2cccc(F)c2)s1 [Example 425, 1-cyclobutyl-4-((5-(3-fluorophenyl)thiazol-2-yl)methyl)piperazine-2,3-dione]
7	O=c1c(=O)n(C23CC(C2)C3)ccn1Cc1ccc(-n2ccnn2)nc1 [Example 411, 1-((6-(1H-1,2,3-triazol-1-yl)pyridin-3-yl)methyl)-4-(bicyclo[1.1.1]pentan-1-yl)-1,4-dihydropyrazine-2,3-dione]
6	O=C1C(=O)N(C23CC(C2)C3)CCN1Cc1cc(-c2ccc(F)cc2)on1 [Example 418, 1-(bicyclo[1.1.1]pentan-1-yl)-4-((5-(4-fluorophenyl)isoxazol-3-yl)methyl)piperazine-2,3-dione]
5	O=c1c(=O)n(C2CCC2)ccn1Cc1nnc(-c2ccccc2)s1 [Example 396, 1-cyclobutyl-4-((5-phenyl-1,3,4-thiadiazol-2-yl)methyl)-1,4-dihydropyrazine-2,3-dione]
5	O=c1c(=O)n(C2CCC2)ccn1Cc1ccc(-n2ccnn2)nc1 [Example 410, 1-((6-(1H-1,2,3-triazol-1-yl)pyridin-3-yl)methyl)-4-cyclobutyl-1,4-dihydropyrazine-2,3-dione]
5	CC1(n2ccn(Cc3cc(-c4ccccc4)on3)c(=O)c2=O)CCC1 [Example 420, 1-(1-methylcyclobutyl)-4-((5-phenylisoxazol-3-yl)methyl)-1,4-dihydropyrazine-2,3-dione]
5	CC1(n2ccn(Cc3cc(-c4cccc(F)c4)on3)c(=O)c2=O)CCC1 [Example 421, 1-((5-(3-fluorophenyl)isoxazol-3-yl)methyl)-4-(1-methylcyclobutyl)-1,4-dihydropyrazine-2,3-dione]
5	CC1(n2ccn(Cc3cc(-c4ccc(F)cc4)on3)c(=O)c2=O)CCC1 [Example 422, 1-((5-(4-fluorophenyl)isoxazol-3-yl)methyl)-4-(1-methylcyclobutyl)-1,4-dihydropyrazine-2,3-dione]
5	O=C1C(=O)N(C2CCC2)CCN1Cc1ncc(-c2ccccc2F)s1 [Example 426, 1-cyclobutyl-4-((5-(2-fluorophenyl)thiazol-2-yl)methyl)piperazine-2,3-dione]
2	O=c1c(=O)n(C23CC(C2)C3)ccn1Cc1cc(-c2cccc(F)c2)on1 [Example 417, 1-(bicyclo[1.1.1]pentan-1-yl)-4-((5-(3-fluorophenyl)isoxazol-3-yl)methyl)-1,4-dihydropyrazine-2,3-dione]
2	O=c1c(=O)n(C23CC(C2)C3)ccn1Cc1cc(-c2ccc(F)cc2)on1 [Example 419, 1-(bicyclo[1.1.1]pentan-1-yl)-4-((5-(4-fluorophenyl)isoxazol-3-yl)methyl)-1,4-dihydropyrazine-2,3-dione]
